pEC50: −log10 of the molar value.

The target in one assay is T1, human CYP11B1 (Homo sapiens, UniProt P15538).
T1 construct: expressed in transfected cells
T1 sequence (P15538 25-503): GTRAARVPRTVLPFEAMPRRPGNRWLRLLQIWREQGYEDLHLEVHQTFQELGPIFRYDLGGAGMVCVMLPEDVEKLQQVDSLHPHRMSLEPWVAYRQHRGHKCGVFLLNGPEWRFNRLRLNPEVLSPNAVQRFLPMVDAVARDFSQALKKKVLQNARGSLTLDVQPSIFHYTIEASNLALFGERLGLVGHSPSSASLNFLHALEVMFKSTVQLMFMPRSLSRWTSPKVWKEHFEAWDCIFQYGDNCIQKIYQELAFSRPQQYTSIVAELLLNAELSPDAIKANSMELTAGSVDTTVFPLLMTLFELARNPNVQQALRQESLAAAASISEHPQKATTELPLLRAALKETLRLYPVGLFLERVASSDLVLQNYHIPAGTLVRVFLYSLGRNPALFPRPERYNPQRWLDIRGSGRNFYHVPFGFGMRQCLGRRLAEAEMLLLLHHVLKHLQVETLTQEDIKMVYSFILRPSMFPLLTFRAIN
In words: G-402 cellular enzyme assay, human CYP11B1 (cortisol release, HTRF). Format: cell-based. Particulars: G-402 cells, 1 μM Deoxycortisol. In outline:
(§1)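 Inhibition of steroid release was taken as enzyme inhibition. CYP11B1 assays used 1 μM deoxycortisol with cortisol detection, CYP11B2 assays 1 μM deoxycorticosterone with aldosterone detection, both by HTRF after 16 h in stable G-402 cells; EC50 from least-squares MMF fit.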
For orientation: Time-resolved FRET reads energy transfer from a long-lived donor to a nearby acceptor.

The target of a further assay is T2, human CYP11B2 (Homo sapiens, UniProt P19099).
T2 construct: expressed in transfected cells
T2 sequence (P19099 25-503): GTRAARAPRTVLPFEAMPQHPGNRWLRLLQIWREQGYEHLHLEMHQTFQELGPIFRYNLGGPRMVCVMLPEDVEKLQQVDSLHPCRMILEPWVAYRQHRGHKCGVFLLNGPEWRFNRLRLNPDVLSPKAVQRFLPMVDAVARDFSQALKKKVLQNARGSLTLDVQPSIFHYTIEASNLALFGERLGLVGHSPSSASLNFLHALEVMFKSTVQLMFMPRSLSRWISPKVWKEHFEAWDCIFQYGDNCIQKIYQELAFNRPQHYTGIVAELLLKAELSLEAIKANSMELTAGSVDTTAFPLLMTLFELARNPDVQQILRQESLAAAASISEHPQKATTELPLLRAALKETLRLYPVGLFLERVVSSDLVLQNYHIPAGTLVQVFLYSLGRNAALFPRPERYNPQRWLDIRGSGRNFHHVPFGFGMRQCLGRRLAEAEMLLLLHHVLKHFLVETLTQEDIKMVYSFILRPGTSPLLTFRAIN
Nature of the assay: G-402 cellular enzyme assay, human CYP11B2 (aldosterone release, HTRF). Particulars: G-402 cells, 1 μM Deoxycorticosterone. Format: cell-based. The method in brief: as §1

In general, pEC50 refers to −log10 of the EC50, conventionally taken in molar units. A low value points to a high EC50. For the molecule `CN(C)C(=O)c1cncc(N2CCc3cc(Cl)ccc3C2=O)c1` [Example 41, 5-(6-Chloro-1-oxo-3,4-dihydro-1H-isoquinolin-2-yl)-N,N-dimethyl-nicotinamide], the pEC50 was 5.22 on human CYP11B1 and 5.43 at human CYP11B2.

On to `CC1CN(c2cccnc2)C(=O)c2ccc(Cl)cc21` (stereo not shown) [Example 105, 6-Chloro-4-methyl-2-pyridin-3-yl-3,4-dihydro-2H-isoquinolin-1-one], for which the pEC50 was 5.35 at human CYP11B1 and 6.42 on human CYP11B2.

In the case of `CCC(=O)N1CCC(Oc2cncc(N3C(=O)c4ccc(Cl)cc4C3(C)C)c2)C1` (stereo not shown) [Example 444, 5-Chloro-3,3-dimethyl-2-[5-(1-propionyl-pyrrolidin-3-yloxy)-pyridin-3-yl]-2,3-dihydro-isoindol-1-one], the results for the pEC50 on human CYP11B1 and on human CYP11B2 were 6.29 and 8.08, respectively.

For `Cc1cncc(N2CCc3cc(Cl)ccc3C2=O)c1` [Example 8, 6-Chloro-2-(5-methyl-pyridin-3-yl)-3,4-dihydro-2H-isoquinolin-1-one], the pEC50 at human CYP11B1 is 6.09; on human CYP11B2, 7.35.

As for `CC(NS(C)(=O)=O)c1cncc(N2CCc3cc(Cl)ccc3C2=O)c1` (stereo not shown) [Example 276, N-{1-[5-(6-Chloro-1-oxo-3,4-dihydro-1H-isoquinolin-2-yl)-pyridin-3-yl]-ethyl}-methanesulfonamide], the pEC50 at human CYP11B1 was 5.69; at human CYP11B2, 6.55.

`CCS(=O)(=O)NC1CCc2c1cncc2N1Cc2cc(Cl)ccc2C1=O` (single isomer, unassigned) [Example 336, Ethanesulfonic acid [(R or S)-4-(5-chloro-1-oxo-1,3-dihydro-isoindol-2-yl)-6,7-dihydro-5H-[2]pyrindin-7-yl]-amide]: the pEC50 on human CYP11B1 is 4.52; on human CYP11B2, 6.02.

For the molecule `CCS(=O)(=O)N(C)Cc1cncc(N2C(=O)c3ccc(Cl)cc3C2(C)C)c1` [Example 395, Ethanesulfonic acid [5-(6-chloro-1,1-dimethyl-3-oxo-1,3-dihydro-isoindol-2-yl)-pyridin-3-ylmethyl]-methyl-amide], the pEC50 at human CYP11B1 was 6.17; on human CYP11B2, 8.10.

For `CCOc1ccc2c(n1)C(C)(C)N(c1cncc(F)c1)C2=O` [Example 299, 2-Ethoxy-6-(5-fluoro-pyridin-3-yl)-7,7-dimethyl-6,7-dihydro-pyrrolo[3,4-b]pyridin-5-one], the pEC50 on human CYP11B1 was 4.31; on human CYP11B2, 6.10.

With `CN1CCN(Cc2cncc(N3C(=O)c4ccc(Cl)cc4C3(C)C)c2)C1=O` [Example 414, 5-Chloro-3,3-dimethyl-2-[5-(3-methyl-2-oxo-imidazolidin-1-ylmethyl)-pyridin-3-yl]-2,3-dihydro-isoindol-1-one], the negative logarithm of the EC50 (pEC50) was 5.69 on human CYP11B1 and 7.52 at human CYP11B2.

For `Cc1nccn1Cc1cncc(N2Cc3cc(Cl)ccc3C2=O)c1` [Example 111, 5-Chloro-2-[5-(2-methyl-imidazol-1-ylmethyl)-pyridin-3-yl]-2,3-dihydro-isoindol-1-one], the pEC50 is 6.03 at human CYP11B1 and 7.19 on human CYP11B2.

As to `CC1(C)c2cc(Cl)ccc2C(=O)N1c1cncc(N2CCN(C(=O)c3ncccc3Cl)CC2)c1` [Example 459, 5-Chloro-2-{5-[4-(3-chloro-pyridine-2-carbonyl)-piperazin-1-yl]-pyridin-3-yl}-3,3-dimethyl-2,3-dihydro-isoindol-1-one], the pEC50 is 6.23 at human CYP11B1 and 8.25 at human CYP11B2.

In the case of `CS(=O)(=O)NC1CCCc2c1cncc2N1CCc2cc(Cl)ccc2C1=O` (single isomer, unassigned) [Example 325, N-((R or S)-6-Chloro-1-oxo-3,4,5′,6′,7′,8′-hexahydro-1H-[2,4′]biisoquinolinyl-8′-yl)-methanesulfonamide], the negative-log EC50 (pEC50) at human CYP11B1 was 5.35; on human CYP11B2, 7.23.

Take `CC1(C)c2cc(Cl)ccc2C(=O)N1c1cncc(CN2CCCCS2(=O)=O)c1` [Example 415, 5-Chloro-2-[5-(1,1-dioxo-1λ6-[1,2]thiazinan-2-ylmethyl)-pyridin-3-yl]-3,3-dimethyl-2,3-dihydro-isoindol-1-one]: the pEC50 was 6.32 on human CYP11B1 and 8.26 on human CYP11B2.

`CC(c1cncc(N2CCc3cc(Cl)ccc3C2=O)c1)n1cncn1` (stereo not shown) [Example 273, 6-Chloro-2-[5-(1-[1,2,4]triazol-1-yl-ethyl)-pyridin-3-yl]-3,4-dihydro-2H-isoquinolin-1-one]: the pEC50 at human CYP11B1 was 6.35; at human CYP11B2 it was 7.19.

As to `C[C@H]1Cc2cc(Cl)ccc2C(=O)N1c1cccnc1` [Example 92, (S)-6-Chloro-3-methyl-2-pyridin-3-yl-3,4-dihydro-2H-isoquinolin-1-one], the pEC50 is 4.94 on human CYP11B1 and 6.57 at human CYP11B2.

Regarding `CCS(=O)(=O)Nc1cncc(N2CCc3cc(Cl)ccc3C2=O)c1` [Example 218, Ethanesulfonic acid [5-(6-chloro-1-oxo-3,4-dihydro-1H-isoquinolin-2-yl)-pyridin-3-yl]-amide], the figures for the pEC50 at human CYP11B1 and at human CYP11B2 were 4.85 and 5.81, respectively.

Consider `O=C1c2ccc(Cl)cc2CCN1c1cncc(COCC2CCCO2)c1` (stereo not shown) [Example 201, 6-Chloro-2-[5-(tetrahydro-furan-2-ylmethoxymethyl)-pyridin-3-yl]-3,4-dihydro-2H-isoquinolin-1-one], for which the values for the pEC50 on human CYP11B1 and at human CYP11B2 were 6.53 and 7.52, respectively.

In the case of `CCc1nc(C)cn1Cc1cncc(N2CCc3cc(Cl)ccc3C2=O)c1` [Example 143, 6-Chloro-2-[5-(2-ethyl-4-methyl-imidazol-1-ylmethyl)-pyridin-3-yl]-3,4-dihydro-2H-isoquinolin-1-one], the pEC50 on human CYP11B1 is 5.35; at human CYP11B2 it was 6.59.

`O=C1c2ccc(Cl)cc2CCN1c1cncc(-c2ccc(F)c(F)c2)c1` [Example 232, 6-Chloro-2-[5-(3,4-difluoro-phenyl)-pyridin-3-yl]-3,4-dihydro-2H-isoquinolin-1-one]: the pEC50 is 5.87 at human CYP11B1 and 7.58 at human CYP11B2.

For the molecule `O=C1CCCCN1Cc1cncc(N2CCc3cc(Cl)ccc3C2=O)c1` [Example 173, 6-Chloro-2-[5-(2-oxo-piperidin-1-ylmethyl)-pyridin-3-yl]-3,4-dihydro-2H-isoquinolin-1-one], the pEC50 at human CYP11B1 was 4.91; on human CYP11B2 it was 6.48.

As to `CC1(C)c2nc(Cl)ccc2C(=O)N1c1cncc(F)c1` [Example 292, 2-Chloro-6-(5-fluoro-pyridin-3-yl)-7,7-dimethyl-6,7-dihydro-pyrrolo[3,4-b]pyridin-5-one], the results for the pEC50 on human CYP11B1 and on human CYP11B2 were 4.44 and 6.29, respectively.

As to `CC(C)N1CCN(Cc2cncc(N3C(=O)c4ccc(Cl)cc4C3(C)C)c2)C1=O` [Example 416, 5-Chloro-2-[5-(3-isopropyl-2-oxo-imidazolidin-1-ylmethyl)-pyridin-3-yl]-3,3-dimethyl-2,3-dihydro-isoindol-1-one], the pEC50 is 6.14 on human CYP11B1 and 8.22 on human CYP11B2.

For `CCS(=O)(=O)N1CC[C@@H](Oc2cncc(N3C(=O)c4ccc(Cl)cc4C3(C)C)c2)C1` [Example 447, 5-Chloro-2-[5-((R)-1-ethanesulfonyl-pyrrolidin-3-yloxy)-pyridin-3-yl]-3,3-dimethyl-2,3-dihydro-isoindol-1-one], the pEC50 was 6.63 at human CYP11B1 and 8.72 on human CYP11B2.

The record behind these values is patent publication US9133158B2, “Bicyclic dihydroisoquinoline-1-one derivatives” (Hoffmann-La Roche Inc., priority 2011, dated 2015).
